Patent US20240287089A1, “Preparation and Uses of 7-Azaindenoisoquinolines” (Purdue Research Foundation, priority 0001, published 2024)

How the values were obtained:
SF-539 (CNS) = assay: NCI-60 cytotoxicity assay; format: cell-based; details: Homo sapiens; SF-539 CNS; 48 h, sulforhodamine B; read-out: Comparative Cytotoxicity GI50, CNS SF-539
Procedure: (§1) The antiproliferative activities of the indenoisquinoline compounds are determined in the NCI-60 cancer cell lines of the National Cancer Institute Developmental Therapeutics Program (NCI-DTP). […] Cancer cells are incubated with the test compounds at five concentrations ranging from 100 μM to 10 nM for 48 h. After the treated cancer cells are stained with sulforhodamine B dye, the percentage growth is plotted as a function of the common logarithm of the tested compound concentration. […] The approximate average of GI50 values across the entire panel of NCI-60 cancer cell lines for each compound is recorded as the MGM value.
(§2) NCI-60 Cytotoxicity Assay. Compounds were submitted to the National Cancer Institute Developmental Therapeutic Program to determine their growth-inhibitory potentials in NCI-60 cell lines. All compounds satisfied the pre-screening proceeded into the 5-dose cell viability assay, in which cells were treated for 48 h at 5 dosages ranging from 100 μM to 10 nM.

NCI-60 cancer cell lines = assay: NCI-60 cytotoxicity assay, MGM; format: cell-based; details: Homo sapiens; entire panel of NCI-60 cancer cell lines; read-out: MGM (approximate average of GI50 values across the NCI-60 panel)
Procedure: as §1, §2

DU-145 (Prostate) = assay: NCI-60 cytotoxicity assay; format: cell-based, human; details: Homo sapiens; DU-145 prostate; 48 h, sulforhodamine B; read-out: Comparative Cytotoxicity GI50, Prostate DU-145
Procedure: as §1, §2

MCF7 (Breast) = assay: NCI-60 cytotoxicity assay; format: cell-based, human; details: Homo sapiens; MCF7 breast; 48 h, sulforhodamine B; read-out: Comparative Cytotoxicity GI50, Breast MCE7
Procedure: as §1, §2

UACC-62 (Melanoma) = assay: NCI-60 cytotoxicity assay; format: cell-based, human; details: Homo sapiens; UACC-62 melanoma; 48 h, sulforhodamine B; read-out: Comparative Cytotoxicity GI50, Melanoma UACC-62
Procedure: as §1, §2

OVCAR-3 (Ovarian) = assay: NCI-60 cytotoxicity assay; format: cell-based, human; details: Homo sapiens; OVCAR-3 ovarian; 48 h, sulforhodamine B; read-out: Comparative Cytotoxicity GI50, Ovarian OVCAR-3
Procedure: as §1, §2

HCT-116 (Colon) = assay: NCI-60 cytotoxicity assay; format: cell-based, human; details: Homo sapiens; HCT-116 colon; 48 h, sulforhodamine B; read-out: Comparative Cytotoxicity GI50, Colon HCT-116
Procedure: as §1, §2

HOP-62 (Lung) = assay: NCI-60 cytotoxicity assay; format: cell-based, human; details: Homo sapiens; HOP-62 lung; 48 h, sulforhodamine B; read-out: Comparative Cytotoxicity GI50, Lung HOP-62
Procedure: as §1, §2

SN12C (Renal) = assay: NCI-60 cytotoxicity assay; format: cell-based, human; details: Homo sapiens; SN12C renal; 48 h, sulforhodamine B; read-out: Comparative Cytotoxicity GI50, Renal SN12C
Procedure: as §1, §2

| SMILES | GI50 (SF-539 (CNS)) | GI50 (NCI-60 cancer cell lines) | GI50 (DU-145 (Prostate)) | GI50 (MCF7 (Breast)) | GI50 (UACC-62 (Melanoma)) | GI50 (OVCAR-3 (Ovarian)) | GI50 (HCT-116 (Colon)) | GI50 (HOP-62 (Lung)) | GI50 (SN12C (Renal)) |
| --- | --- | --- | --- | --- | --- | --- | --- | --- | --- |
| COc1cc2c3c(n(CCCNCC4CC4)c(=O)c2cc1OC)-c1cc2c(cc1C3=O)OCO2 [A1] | 760 nM | 1320 nM | 760 nM | 95 nM | 2860 nM | 1420 nM | 1140 nM | 350 nM | 1370 nM |
| COc1cc2c3c(n(CCCNC4CCC4)c(=O)c2cc1OC)-c1cc2c(cc1C3=O)OCO2 [A2] | 1050 nM | 870 nM | 790 nM | 57 nM | 1400 nM | 1380 nM | 900 nM | 220 nM | 1440 nM |
| COc1cc2c3c(n(CCCNC4CCCC4)c(=O)c2cc1OC)-c1cc2c(cc1C3=O)OCO2 [A3] | 1510 nM | 2690 nM | 1440 nM | 670 nM | 13000 nM | 1640 nM | 1200 nM | 2380 nM | 1800 nM |
| COc1cc2c3c(n(CCCN4CCCC4)c(=O)c2cc1OC)-c1cc2c(cc1C3=O)OCO2 [A4] | 1330 nM | 1100 nM | 1310 nM | 380 nM | 1480 nM | 1500 nM | 1140 nM | 800 nM | 1640 nM |
| COc1cc2c3c(n(CCCN4CCC[C@H]4C(N)=O)c(=O)c2cc1OC)-c1cc2c(cc1C3=O)OCO2 [A5] | 30 nM | 125 nM | 38 nM | 10 nM | 21 nM | 160 nM | 35 nM | 31 nM | 42 nM |
